The values below are quoted from earlier work in PMC10318822, “Phase 1 dose-escalation study to evaluate the safety, tolerability, pharmacokinetics, and anti-tumor activity of FCN-159 in adults with neurofibromatosis type 1-related unresectable plexiform neurofibromas” (BMC Medicine, 2023).

Structures are written as SMILES.

The data set deals with patients with advanced NRAS mut+ melanoma. Set-up: method as in PMID 36113242. The note with it: cited from earlier work.

`Cn1c(=O)c(F)c(Nc2ccc(I)cc2F)c2c(=O)n(C3CC3)nc(-c3cccc(NS(=O)(=O)C4CC4)c3)c21` [FCN-159]: where the note is “6 mg or lower, as of October 20, 2020, dose escalated from 0.2 mg to 15 mg”, the “DLTs or SAEs” value is on record as “no DLTs or SAEs were observed”. Under “first-in-human study, NRAS mut+ melanoma”, the Tolerability entry is given as “well tolerated”. Besides, the RP2D (phase 1a study, advanced NRAS mut+ melanoma) was 12 mg.
